According to article PMC8467576, “Novel Ubiquitin Specific Protease-13 Inhibitors Alleviate Neurodegenerative Pathology” (Metabolites, 2021):

System: alpha-synuclein ubiquitination
Assay: Alpha-synuclein ubiquitination in TgA53T mice (IP/WB, co-localization immunostaining)
Format: in vivo, mouse
Procedure: Male and female TgA53T mice (15 months old) were treated daily with intraperitoneal injection of DMSO versus 10 mg/kg or 40 mg/kg BK50118-C for 7 days. […] ELISA measurement of alpha-synuclein in the same extracts (Figure 4C) confirmed that human alpha-synuclein was reduced by about 30% (10 mg/kg) and 56% (40 mg/kg), respectively (Figure 4C).
To ascertain the mechanistic effects of BK50118-C on alpha-synuclein clearance, we performed immunostaining in striatum of TgA53T mice. […] We also performed the staining of tyrosine hydroxylase (TH) in the striatum of TgA53T mice. TH is the enzyme responsible for catalyzing the rate limiting step in synthesis of L-3,4-dihydroxyphenylalanine(L-DOPA) which is a precursor for dopamine (DA). Staining of TH will help to evaluate the status of DA producing neurons in the SN and their terminals in the striatum.
BK50118-C is one of novel small molecule inhibitors of USP13 synthesized in our laboratory. For BK50118-C treatment, approximately 15 months old (±1 month) male and female TgA53T mice were treated with intraperitoneal injection of vehicle (DMSO) or BK50118-C at the daily dosage of 10 mg/Kg or 40 mg/Kg for 7 days. […]
Mouse brain tissues were homogenized in 1x STEN buffer, and the soluble fraction was isolated as indicated above. […] The supernatant was recovered and quantified by protein assay, and a total of 300 µg protein was incubated overnight at 4 °C with primary anti-alpha-synuclein (1:200, Thermofisher, AHB0261) mouse antibodies or anti-ubiquitin (1:100) (Thermo Fisher, PA3–16717, Rockford, IL, USA) antibodies in the presence of sepharose G and an IgG control with primary antibodies. […]
Immunohistochemistry was performed on the 20 µm thick brain sections for evaluation of ubiquitination of alpha-synuclein. […] The optic densitometry of co-localization of ubiquitin with alpha-synuclein was measured using Image J. Tyrosine hydroxylase (TH) is the limiting enzyme in DA synthesis, so probing for TH+ neurons will help to evaluate the status of DA producing neurons in the SN and their terminals in the striatum. […]

[1] = midbrain extracts, 40 mg/kg vs DMSO and 10 mg/kg, 7 days

`Fc1ccc2nccc(OCc3ccccc3)c2c1` [BK50118-C, 4-benzyloxy-6-fluoroquinoline] was tested, and the “ubiquitination after immunoprecipitation of alpha-synuclein followed by ubiquitin WB” value [1] was “increased ubiquitination”, the “ubiquitination of alpha-synuclein after immunoprecipitation of ubiquitin followed by alpha-synuclein WB” value [1] was “increased ubiquitination of alpha-synuclein” and the “increase in alpha-synuclein-ubiquitin co-localization (optic density)” value (striatum, 40 mg/Kg I.P. daily for 7 days, vs DMSO) was 130%.
